Patent publication US20240115622A1, “FORMULATION FOR THE PREVENTION AND/OR TREATMENT OF COVID-19” (priority 2022, published 2024)
Like-named read-outs stand apart in the source and are kept apart here.

Experiments:
[1] = test system: human respiratory coronavirus OC43; test: HCT-8 cells infected with human respiratory coronavirus OC43, antiviral effect (CPE, WST-1); assay type: cell-based
porcine coronavirus PEDV = test: PEDV infection of Vero E6 cells, antiviral activity by CPE
VERO E6 cells [2] = test: cytotoxicity of the compounds on Vero E6 cells
VERO E6 cells [3] = test system: VERO E6 cells

Row | Molecule | time for which a significant effect was sustained ([1]; after 2 hours of treatment exposure) [days] | concentration with optimal effect in protecting cells from coronaviral infection ([1]; overall conclusion of the coronavirus experiments) [%] | visual scores of the CPE, effect against PEDV infection (porcine coronavirus PEDV; FIG. 1, 3 days post infection, PEDV-infected Vero E6 cells, low concentrations) | low concentration with protective effect against PEDV infection (below the cytotoxic concentrations) (porcine coronavirus PEDV; Vero E6 cells, medium with 2% FBS, speculated, to be better sustained) [%] | PEDV induced cytotoxicity (porcine coronavirus PEDV; medium without FBS, high concentrations of the compound) | cytotoxicity, effect of low concentration of FBS (VERO E6 cells [2]; medium supplemented with 2% FBS) | cytotoxicity (VERO E6 cells [2]; medium without FBS) | cytotoxicity (VERO E6 cells [3]) | cytotoxicity, effect of low concentration of FBS (VERO E6 cells [3])
1 | OC[C@@H](O)[C@H](O)[C@@H](O)CO [xylitol] | 4 | 0.5 | protective effects | ≤ 3 | higher | significantly decreased | very high |  | 
2 | propolis |  |  |  |  |  |  |  | very high | significantly decreased
